Test results published in patent US8710097B2, “Flavonoid dimers and methods of making and using such” (The Hong Kong Polytechnic University, priority 2006, dated 2014).
Converted amounts (≈) assume the structure as drawn. Like-named read-outs stand apart in the source and are kept apart here.

Key:
[1] = tested on: wild type L. enriettii (Le); experiment: Leishmania cell viability (MTS) assay; format: cell-based, Leishmania enriettii
Method: (§1) Cell lines and Cell Culture. Promastigotes of Leishmania enriettii (LePentR50, Le wild type, LeMDR1 −/− and LeMDR1-overexpressed LeV160 mutants) and Leishmania donovani (LdAG83, Ld2001 and Ld39) were employed in this study. The former is a natural infective strain of guinea pig and the latter is a clinical strain, which may cause visceral leishmaniasis in human. Both strains were cultured in Schneider's Drosophila Medium (Invitrogen), pH 6.9 supplemented with 10% (v/v) heat inactivated fetal calf serum (Hyclone) with 4 mM glutamine (Sigma) and 25 μg/mL gentamicin solution (Invitrogen), at 27° C. for 4 days (Cloning and functional analysis of an extrachromosomally amplified multidrug resistance-like gene in Leishmania enriettii. Mol. Biochem. Parasitol 1993, 60, 195-208).
(§2) Promastigotes of LeV160 were culture in the presence of 160 μg/mL vinblastine. No pentamidine and vinblastine (Sigma) was added to the Le wild type and LeMDR1 −/− mutant.
The viability of promastigotes was determined by the Cell Titer 96® Aqueous Assay (Promega) that employs a tetrazolium compound (MTS) and electron coupling reagent, phenazine methosulfate (PMS). Promastigotes were seeded into 96-well flat bottom microtiter plate at 1×10^5 cells per well in a final volume of 100 μL medium. To determine the cytotoxic effects of flavonoid dimers to the parasites, various concentrations of flavonoid dimers were added to the promastigotes. To determine the reversal effects of flavonoid dimers with different spacer lengths, various concentrations of antileishmanial drugs, one of pentamidine or SSG, vinblastine and puromycin was added to the wells with or without flavonoid dimers. The parasites were incubated at 27° C. for 72 hrs. Each concentration of antileishmanials with or without the flavonoid dimers was tested in triplicates in each experiment. A 2 mg/mL MTS and 0.92 mg/mL PMS were mixed at a ratio of 20:1 (MTS: PMS). […] After 4 hrs of incubation, the OD values were determined at 490 nm using automatic microtiter plate reader (Bio-Rad).

[2] = tested on: pentamidine-resistant L. enriettii LePentR50 promastigotes; experiment: microbe, parasite or virus in culture
Method: as §1, §2
(§3) The viability of promastigotes was determined by the Cell Titer 96® Aqueous Assay (Promega) that employs a tetrazolium compound (MTS) and electron coupling reagent, phenazine methosulfate (PMS). Promastigotes were seeded into 96-well flat bottom microtiter plate at 1×10^5 cells per well in a final volume of 100 μL medium. To determine the cytotoxic effects of flavonoid dimers to the parasites, various concentrations of flavonoid dimers were added to the promastigotes. To determine the reversal effects of flavonoid dimers with different spacer lengths, various concentrations of antileishmanial drugs, one of pentamidine or SSG, vinblastine and puromycin was added to the wells with or without flavonoid dimers. The parasites were incubated at 27° C. for 72 hrs. Each concentration of antileishmanials with or without the flavonoid dimers was tested in triplicates in each experiment. A 2 mg/mL MTS and 0.92 mg/mL PMS were mixed at a ratio of 20:1 (MTS: PMS). After 72-hr incubation, 10 μL of MTS:PMS mixture was added into each well of microtiter plate. The plate was then incubated at 27° C. for 4 hrs for color development. After 4 hrs of incubation, the OD values were determined at 490 nm using automatic microtiter plate reader (Bio-Rad).

[3] = tested on: LeMDR1 overexpressed L. enriettii (LeV160); experiment: Leishmania cell viability (MTS) assay; format: cell-based, Leishmania enriettii; conditions: Leishmania enriettii, read-out: IC50 of pentamidine (μg/ml), no modulator
Excerpt: (§4) Cell lines and Cell Culture.

[4] = tested on: LeMDR1 knockout (LeMDR1 −/−) L. enriettii; experiment: Leishmania cell viability (MTS) assay; format: cell-based, Leishmania enriettii; conditions: Leishmania enriettii, read-out: IC50 of pentamidine (μg/ml), no modulator
Excerpt: as §4

P388/ADR cells [5] = experiment: cells
Method: MDA435/LCC6 and P388 (both parent and MDR subtype) were maintained in DMEM and RPMI 1640 culture medium supplemented with 10% FBS, respectively. RPMI 1640 media also contained 100 units/ml penicillin and 100 μg/ml streptomycin. Cells were cultured at 37° C. in a humidified atmosphere with 5% CO2. A solution of 0.05% trypsin-EDTA was used to detach the MDA435/LCC6 (both wild type and MDR subtype) cells.
Cell proliferation assay. MDA435/LCC6 and P388 (both parent and MDR subtype) cells were seeded at 2000 and 5000 cells per well, respectively, in 96-well plates. Varying concentrations of anticancer drugs (Doxorubicin, Daunorubicin, Vincristine, Vinblastine, taxol, Mitoxantrone) with or without the flavonoid dimers were added in a final volume of 200 μl and cells were grown for 4 and 3 days for MDA435/LCC6 and P388 (both parent and MDR subtype) cells, respectively. For MDA435/LCC6 (both parent and MDR subtype), the corresponding drugs were added after cell attachment (24 hr incubation). To measure cell proliferation, the cell Titer 960 Aqueous Assay (Promega) was used according to the manufacturer's instructions. Briefly, MTS (2 mg/ml) and PMS (0.92 mg/ml) were mixed in a ratio of 20:1. 30 μl MTS/PMS mixture was added into each well and incubated for 2 hours at 37° C. Optical absorbance at 490 nm was then recorded using an ELISA microtiter plate reader (Bio-Rad). Each experiment was done at least in triplicate and repeated twice. Cytotoxicity of the anticancer drugs was expressed as the fraction of the cells survived relative to the untreated DMSO (0.05%) solvent controls.

[6] = tested on: SSG-resistant L. donovani Ld39 promastigotes; experiment: microbe, parasite or virus in culture; format: cell-based, Leishmania donovani; conditions: for SSG resistance modulating activity: Ld39, 12 μM, FIG. 14B; for IC50: read-out: IC50(μM) of synthetic flavonoid, Ld39
Method: as §1, with “195-208). […]” for “195-208).”
as §3

MDA435/LCC6 MDR cells [7] = experiment: cells; conditions: MDA435/LCC6 MDR; for doxorubicin resistance reversal: monomers; for reversing effect on taxol resistance: monomers at 10 μM
[8] = tested on: wild type L. donovani LdAG83 promastigotes; experiment: Leishmania cell viability (MTS) assay; format: cell-based, Leishmania donovani; conditions: read-out: IC50(μM) of synthetic flavonoid, LdAG83
Method: as §1, with “195-208). […]” for “195-208).”
as §3

[9] = tested on: tested MDR cell lines (drug resistant breast cancer and leukemia cells); format: cell-based; conditions: tested MDR cell lines; 10 μM
Excerpt: Cell proliferation assay.

leukemic K562/R7 cells = conditions: literature; cited from earlier work
[10] = molecular target: NBD2 cytosolic domain of mouse P-gp (Mus musculus, UniProt P06795); conditions: reported in literature; cited from earlier work
Sequence of NBD2 cytosolic domain of mouse P-gp (P06795 1033-1271 limits assumed): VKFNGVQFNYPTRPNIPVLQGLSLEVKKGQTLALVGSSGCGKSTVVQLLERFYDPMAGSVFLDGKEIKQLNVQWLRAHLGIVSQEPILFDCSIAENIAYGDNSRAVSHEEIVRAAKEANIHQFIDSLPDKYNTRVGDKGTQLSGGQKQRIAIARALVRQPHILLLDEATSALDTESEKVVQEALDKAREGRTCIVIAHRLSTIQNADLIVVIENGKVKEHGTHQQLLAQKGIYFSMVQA

MDA435/LCC6 cells = experiment: Doxorubicin accumulation; format: cell-based, human; conditions: LCC6, basal P-gp; dimers 10 μM, monomer 20 μM
Method: Doxorubicin accumulation. […] At confluence, culture medium was removed. 2 ml of fresh DMEM with modulators was added and cells were incubated for 30 min at 37° C. Doxorubicin (final concentration of 20 μM) was then added and incubated for 2 h at 37° C. The cells were then harvested by trypsinization.

MDA435/LCC6 MDR cells [11] = experiment: Doxorubicin accumulation; format: cell-based, human; conditions: LCC6 MDR; apigenin dimers 10 μM; 20 μM doxorubicin, 2 h
Method: Doxorubicin accumulation. 2.5 ml (10^5 cells/ml) MDA435/LCC6 (both parent and MDR subtype) cells were seeded in each well of 6-well plates. At confluence, culture medium was removed. 2 ml of fresh DMEM with modulators was added and cells were incubated for 30 min at 37° C. Doxorubicin (final concentration of 20 μM) was then added and incubated for 2 h at 37° C. The cells were then harvested by trypsinization.
(§5) For P388 (both parent and MDR subtype) cells, 1 ml (10^5 cells) confluent cells were aliquot into Eppendorf tube and pre-incubated with flavone dimers for 30 min at 37° C. Doxorubicin (final concentration of 10 μM) was then added and incubated for 2 h at 37° C. at a final concentration of 10 μM. The cell pellets were washed 3 times with cold PBS by using an Eppendorf micro-centrifuge and lysed with 0.3N HCL in 50% ethanol, and sonicated for 30s. After centrifugation at 10000 rpm/min for 3 min, the supernatant was saved. The fluorescence of doxorubicin was measured using a spectrofluorometer (λexcite=470 nm, λemit=585 nm).
In order to understand whether the modulating activity for various anticancer drugs by different dimers is due to their different ability to modulate P-gp mediated drug efflux, their effects on the accumulation of doxorubicin in both MDA435/LCC6 sensitive and resistant cells were investigated. Doxorubicin was a fluorescent drug substrate of P-gp and was used in this experiment to monitor the P-gp mediated drug efflux. Accumulation of doxorubicin in these cells was determined in the presence or absence of apigenin dimers (10 μM) and monomer (20 μM). Verapamil was used as a positive control.

P388 cells = experiment: Doxorubicin accumulation; format: cell-based, murine
Method: as §5

P388/ADR cells [12] = experiment: Doxorubicin accumulation; format: cell-based, murine; conditions: monomer 10b at double concentration of the dimers, FIG. 11A
Method: as §5

Ltrmdr1 = conditions: literature; cited from earlier work
[13] = cytotoxicity of compound alone, 72 hrs

## N=C(N)c1ccc(OCCCCCOc2ccc(C(=N)N)cc2)cc1 [pentamidine, reference compound]
[1]; Le wild type
  IC50 of pentamidine (μg/ml), no modulator: 12.0 ± 0.8 µg/mL
[1]; Leishmania enriettii, read-out: IC50 of pentamidine (μg/ml), no modulator, Le wild type
  IC50: ~8.7 µg/mL (≈ 25.6 µM)
[2]; 60 μg/ml pentamidine alone
  survival of LePentR50: 94.0±2.3 % of untreated
[2]; Leishmania enriettii, read-out: IC50 of pentamidine alone, LePentR50, no modulator (DMSO)
  IC50: 117 mg/L
[3]
  IC50: 9 ± 0.1 µg/mL (≈ 26.4 µM)
[4]
  IC50: 18.9 ± 0.8 µg/mL (≈ 55.5 µM)

## O=c1cc(-c2ccc(OCCOCCOCCO)cc2)oc2cc(O)cc(O)c12 [Compound 10a, 9-[4′-((5,7-dihydroxy)-4H-chromen-4-on-2-yl)phenyl]-3,6,9,-trioxanonan-1-ol]
P388/ADR cells [5]
  modulatory activity on doxorubicin and daunorubicin cytotoxicity: little modulatory activity
[6]
  SSG resistance modulating activity: did not give any significant modulating activity
[6]; [13]
  IC50: > 200 µM
[2]; read-out: IC50(μM) of synthetic flavonoid, LePentR50, cytotoxicity of compound alone, 72 hrs
  IC50: > 200 µM
MDA435/LCC6 MDR cells [7]
  doxorubicin resistance reversal: ineffective reversers
  reversing effect on taxol resistance: little reversing effect
[8]; [13]
  IC50: > 200 µM
[9]
  anticancer activity of monomers alone: no anticancer activity

## CC(C)=CCc1c(O)cc(O)c2c(=O)cc(-c3ccccc3)oc12 [8-Prenylchrysin]
Leukemic K562/R7 cells
  inhibition of P-gp mediated drug efflux: inhibited P-gp mediated drug efflux

## O=c1c(O)c(-c2ccc(O)c(O)c2)oc2cc(O)cc(O)c12 [quecetin]
[10]
  binding to NBD2 cytosolic domain of mouse P-gp: bind directly

## COc1ccc(CCN(C)CCCC(C#N)(c2ccc(OC)c(OC)c2)C(C)C)cc1OC (stereo not drawn) [Verapamil, reference compound]
MDA435/LCC6 cells
  accumulation of doxorubicin in LCC6: unaffected
MDA435/LCC6 MDR cells [11]
  enhancement of doxorubicin accumulation, folds of control: 6.2 folds
[2]; LePentR50, FIG. 18A
  pentamidine sensitization: less than half-fold sensitization
P388 cells
  doxorubicin accumulation in parent sensitive cells: almost unaffected

## dehydrosilybin
[10]
  binding to NBD2 cytosolic domain of mouse P-gp: bind directly

## O=c1cc(-c2ccc(OCCOCCOCCOCCO)cc2)oc2cc(O)cc(O)c12 [Compound 10b, 12-[4′-((5,7-dihydroxy)-4H-chromen-4-on-2-yl)phenyl]-3,6,9,12-tetraoxadodecan-1-ol]
P388/ADR cells [5]
  modulatory activity on doxorubicin and daunorubicin cytotoxicity: little modulatory activity
[6]
  SSG resistance modulating activity: did not give any significant modulating activity
[6]; Leishmania donovani, 72 h
  IC50: > 200 µM
[2]; Leishmania enriettii, 72 h, read-out: IC50(μM) of synthetic flavonoid, LePentR50, cytotoxicity of compound alone, 72 hrs
  IC50: > 200 µM
P388/ADR cells [12]
  activity on doxorubicin accumulation: little or no activity at all
MDA435/LCC6 MDR cells [7]
  doxorubicin resistance reversal: ineffective reversers
  reversing effect on taxol resistance: little reversing effect
[8]; Leishmania donovani, 72 h
  IC50: > 200 µM
[9]
  anticancer activity of monomers alone: no anticancer activity

## COc1ccc(-c2oc3c(CC=C(C)C)c(O)cc(O)c3c(=O)c2O)cc1 [8-dimethylallylkaempferide]
Ltrmdr1
  modulation (inhibition of Ltrmdr1) compared with cyclosporine A or verapamil: better modulator than either cyclosporine A or verapamil

## CC(C)=CCc1c(O)cc2oc(-c3ccccc3)cc(=O)c2c1O [6-Prenylchrysin]
Leukemic K562/R7 cells
  inhibition of P-gp mediated drug efflux: inhibited P-gp mediated drug efflux

## O=c1c(O)c(-c2ccc(O)cc2)oc2cc(O)cc(O)c12 [kaempferol]
[10]
  binding to NBD2 cytosolic domain of mouse P-gp: bind directly
